Reference: ChEMBL document CHEMBL1139473, “Design, synthesis, and biological evaluation of dual binding site acetylcholinesterase inhibitors: new disease-modifying agents for Alzheimer's disease” (J Med Chem, 2005)

Legend:
[1] = target: Cholinesterases; ACHE & BCHE (Homo sapiens) (UniProt P06276+P22303); assay: Selectivity for human BChE over human AChE; assay type: protein assay
[2] = target: T1, Acetylcholinesterase (Homo sapiens, UniProt P22303); assay: Inhibition of human AChE-induced beta amyloid peptide(1-40) aggregation at 100 uM by thioflavin T-based fluorometric assay; assay type: functional
T1 sequence (P22303 whole entry): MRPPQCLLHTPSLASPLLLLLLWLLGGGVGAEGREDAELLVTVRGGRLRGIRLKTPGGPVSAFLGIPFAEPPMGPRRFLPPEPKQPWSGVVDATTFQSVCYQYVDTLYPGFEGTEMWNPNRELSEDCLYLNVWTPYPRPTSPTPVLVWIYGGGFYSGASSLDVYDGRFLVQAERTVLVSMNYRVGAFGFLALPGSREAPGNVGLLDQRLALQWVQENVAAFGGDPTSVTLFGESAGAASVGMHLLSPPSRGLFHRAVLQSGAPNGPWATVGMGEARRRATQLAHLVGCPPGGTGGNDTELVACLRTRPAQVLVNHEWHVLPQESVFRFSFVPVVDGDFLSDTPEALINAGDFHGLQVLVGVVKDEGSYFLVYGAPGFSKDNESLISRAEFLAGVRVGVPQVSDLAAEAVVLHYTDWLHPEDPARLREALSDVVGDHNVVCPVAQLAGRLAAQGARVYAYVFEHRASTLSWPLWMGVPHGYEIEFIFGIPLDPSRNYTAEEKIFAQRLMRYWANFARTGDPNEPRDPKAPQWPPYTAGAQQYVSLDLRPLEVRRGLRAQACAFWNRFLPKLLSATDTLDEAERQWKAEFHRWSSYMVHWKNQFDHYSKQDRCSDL

[3] = target: Cholinesterase (Homo sapiens, UniProt P06276)
Chain of Cholinesterase (P06276 whole entry): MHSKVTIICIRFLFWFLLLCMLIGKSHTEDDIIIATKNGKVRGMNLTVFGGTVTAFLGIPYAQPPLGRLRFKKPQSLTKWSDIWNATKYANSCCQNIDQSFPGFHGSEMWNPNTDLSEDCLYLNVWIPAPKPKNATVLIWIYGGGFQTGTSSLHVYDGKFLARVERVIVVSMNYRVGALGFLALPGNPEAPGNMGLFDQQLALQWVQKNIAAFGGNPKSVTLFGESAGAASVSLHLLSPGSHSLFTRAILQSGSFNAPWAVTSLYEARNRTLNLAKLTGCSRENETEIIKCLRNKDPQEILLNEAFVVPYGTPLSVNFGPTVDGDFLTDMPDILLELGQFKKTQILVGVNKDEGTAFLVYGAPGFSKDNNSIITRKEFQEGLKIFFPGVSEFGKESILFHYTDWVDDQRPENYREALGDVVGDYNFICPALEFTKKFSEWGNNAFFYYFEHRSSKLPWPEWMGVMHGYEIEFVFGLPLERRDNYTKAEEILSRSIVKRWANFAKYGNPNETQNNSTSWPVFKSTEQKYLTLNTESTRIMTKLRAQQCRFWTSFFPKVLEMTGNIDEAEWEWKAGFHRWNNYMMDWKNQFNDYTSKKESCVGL
Description: Inhibition of human serum BChE

[4] = target: T1, Acetylcholinesterase
Description: Inhibition of human brain AchE

[5] = target: T1, Acetylcholinesterase; remark: listed apart in the source
[6] = target: T2, Acetylcholinesterase (Bos taurus, UniProt P23795); assay: biochemical
T2 sequence (P23795 whole entry): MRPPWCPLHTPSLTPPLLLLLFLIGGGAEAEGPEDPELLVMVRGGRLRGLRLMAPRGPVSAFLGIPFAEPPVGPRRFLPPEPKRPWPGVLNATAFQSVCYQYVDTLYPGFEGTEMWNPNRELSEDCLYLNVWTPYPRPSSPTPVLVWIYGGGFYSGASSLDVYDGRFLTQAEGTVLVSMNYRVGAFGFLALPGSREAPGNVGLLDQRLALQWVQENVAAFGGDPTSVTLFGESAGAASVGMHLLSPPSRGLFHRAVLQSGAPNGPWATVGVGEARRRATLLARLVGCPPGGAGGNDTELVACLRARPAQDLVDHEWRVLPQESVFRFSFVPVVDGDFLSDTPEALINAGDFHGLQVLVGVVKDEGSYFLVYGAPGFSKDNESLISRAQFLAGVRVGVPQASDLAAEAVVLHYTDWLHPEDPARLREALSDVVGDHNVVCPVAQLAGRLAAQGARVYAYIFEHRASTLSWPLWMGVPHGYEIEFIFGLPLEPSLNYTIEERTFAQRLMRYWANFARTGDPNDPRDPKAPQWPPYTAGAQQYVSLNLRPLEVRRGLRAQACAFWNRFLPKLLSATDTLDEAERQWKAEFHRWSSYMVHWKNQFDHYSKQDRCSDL
Description: Inhibition of AchE in bovine erythrocytes

[7] = system: SH-SY5Y; assay: Cytotoxicity against human SHSY5Y cells at 10 uM after 48 hrs; assay type: cell-based

Chain of Cholinesterases; ACHE & BCHE (Homo sapiens) (P06276 whole entry, looked up): as the sequence (P06276 whole entry) above
Chain of Cholinesterases; ACHE & BCHE (Homo sapiens) (P22303 whole entry, looked up): as the sequence (P22303 whole entry) above

O=C(CCCc1c[nH]c2ccccc12)NCCCCCNc1c2c(nc3cc(Cl)ccc13)CCCC2 gave a Ratio IC50 [1] of 0.04, an inhibition [2] of 99% and an IC50 [3] of 3.2 nM. For the same compound, the IC50 [4] was 0.13 nM, the Ki [4] was 0.0017 nM and the IC50 [5] was 2000 nM. It also gave an IC50 [6] of 0.3 nM.
Cn1cc(C(=O)NCCCCCCCNc2c3c(nc4cc(Cl)ccc24)CCCC3)c2ccccc21 was tested, and the IC50 [3] was 206 nM and the IC50 [6] was 10.9 nM.
O=C(CCc1c[nH]c2ccccc12)NCCCCCCCCCc1c2c(nc3cc(Cl)ccc13)CCCC2 was tested, and the IC50 [3] was 9.6 nM.
O=C(/C=C/c1c[nH]c2ccccc12)NCCCCCCNc1c2c(nc3cc(Cl)ccc13)CCCC2 showed an IC50 [3] of 77 nM and an IC50 [6] of 18 nM.
Compound O=C(CCc1c[nH]c2ccccc12)NCCCCCCCCCCNc1c2c(nc3ccccc13)CCCC2 has an IC50 [3] of 54 nM and an IC50 [6] of 21.9 nM.
In the case of O=C(Cc1c[nH]c2ccc(Br)cc12)NCCCCCCCNc1c2c(nc3cc(Cl)ccc13)CCCC2, the Ratio IC50 [1] is reported as 0.14, the inhibition [2] is reported as 82% and the IC50 [4] is reported as 0.23 nM. It also gave a Ki [4] of 0.02 nM, an IC50 [5] of 15000 nM and an IC50 [6] of 0.6 nM.
With O=C(CCOc1c[nH]c2ccccc12)NCCCCCNc1c2c(nc3cc(Cl)ccc13)CCCC2 the IC50 [3] was 136 nM and the IC50 [6] was 1.5 nM.
Work on O=C(CCc1c[nH]c2ccccc12)NCCCCCNc1c2c(nc3cc(Cl)ccc13)CCCC2 yielded an IC50 [3] of 16 nM.
In the case of O=C(CCc1c[nH]c2ccccc12)NCCCCCCCCNc1c2c(nc3cc(Cl)ccc13)CCCC2, the Activity [7] is reported as “Active”.
O=C(CCOc1c[nH]c2ccccc12)NCCCCCCNc1c2c(nc3cc(Cl)ccc13)CCCC2 showed an IC50 [3] of 60 nM and an IC50 [6] of 0.7 nM.
With N#Cc1ccc2[nH]cc(CCC(=O)NCCCCCCNc3c4c(nc5cc(Cl)ccc35)CCCC4)c2c1 the IC50 [3] was 11.7 nM and the IC50 [6] was 0.7 nM.
For O=C(CCCc1c[nH]c2ccccc12)NCCCCCCNc1c2c(nc3cc(Cl)ccc13)CCCC2, the IC50 [6] was 0.5 nM.
In the case of CN(CCCNC(=O)CCc1c[nH]c2ccccc12)CCCNc1c2c(nc3cc(Cl)ccc13)CCCC2, the Activity [7] is reported as “Active” and the IC50 [3] is reported as 21.4 nM.
Compound O=C(Cc1c[nH]c2ccccc12)NCCCCCCCNc1c2c(nc3cc(Cl)ccc13)CCCC2 has a Ratio IC50 [1] of 0.01, an inhibition [2] of 84% and an IC50 [3] of 11.7 nM. The IC50 [4] was 0.12 nM, the Ki [4] was 0.015 nM and the IC50 [5] was 7000 nM. It also gave an IC50 [6] of 0.2 nM.
In the case of O=C(CCc1c[nH]c2ccccc12)NCCCCCCNc1c2c(nc3cc(Cl)ccc13)CCCC2, the Ratio IC50 [1] is reported as 0.02, the inhibition [2] is reported as 98% and the IC50 [4] is reported as 0.07 nM. The Ki [4] was 0.014 nM and the IC50 [5] was 2000 nM.
With O=C(CCc1c[nH]c2ccccc12)NCCCCCCCNc1c2c(nc3cc(Cl)ccc13)CCCC2 the Ratio IC50 [1] was 0.22, the inhibition [2] was 96% and the Activity [7] was “Active”. It also gave an IC50 [4] of 0.02 nM, a Ki [4] of 0.009 nM and an IC50 [5] of 6000 nM.
For O=C(CCOc1c[nH]c2ccccc12)NCCCCCCCNc1c2c(nc3cc(Cl)ccc13)CCCC2, the IC50 [3] was 59 nM and the IC50 [6] was 3 nM.
